Patent US20250084092A1, “ANNULATED PYRIDAZINE COMPOUND” (Nico Therapeutics, Inc., priority 2021, published 2025)
pIC50: −log10 of the molar value. Where a name gives a salt, the structure may show the parent alone.

biological target: T1, NLRP3 inflammasome (Homo sapiens, UniProt Q96P20); assay: THP-1 IL-1β production inhibition test; assay type: cell-based; settings: PMA-treated THP-1 cells, LPS 50 ng/mL + ATP 5 mM, 2 hours, IL-1β in supernatant by ELISA
T1 construct: endogenous in cells; host or cells: THP-1 cells (PMA-differentiated, stimulated with LPS and ATP)
Method: PMA (phorbol myristate acetate, SIGMA, P1585) was added to THP-1 cells in an amount of 50 ng/mL to culture the cells for 2 days at 37° C. […] LPS (Lipopolysaccharide, SIMGA, L2880) and ATP (Adenosine triphosphate, SIGMA, A2383) were added so that final concentrations become 50 ng/mL and 5 mM, respectively, followed by culturing at 37° C. for 2 hours. The supernatants were collected to measure the concentrations of IL-1β by ELISA (DuoSet ELISA human IL-1β, R&D Systems, DY201). The IL-1β concentrations were plotted against log concentrations of test compounds, and an IC50 value was calculated by sigmoid Emax model nonlinear regression analysis.

T1 sequence (Q96P20 whole entry): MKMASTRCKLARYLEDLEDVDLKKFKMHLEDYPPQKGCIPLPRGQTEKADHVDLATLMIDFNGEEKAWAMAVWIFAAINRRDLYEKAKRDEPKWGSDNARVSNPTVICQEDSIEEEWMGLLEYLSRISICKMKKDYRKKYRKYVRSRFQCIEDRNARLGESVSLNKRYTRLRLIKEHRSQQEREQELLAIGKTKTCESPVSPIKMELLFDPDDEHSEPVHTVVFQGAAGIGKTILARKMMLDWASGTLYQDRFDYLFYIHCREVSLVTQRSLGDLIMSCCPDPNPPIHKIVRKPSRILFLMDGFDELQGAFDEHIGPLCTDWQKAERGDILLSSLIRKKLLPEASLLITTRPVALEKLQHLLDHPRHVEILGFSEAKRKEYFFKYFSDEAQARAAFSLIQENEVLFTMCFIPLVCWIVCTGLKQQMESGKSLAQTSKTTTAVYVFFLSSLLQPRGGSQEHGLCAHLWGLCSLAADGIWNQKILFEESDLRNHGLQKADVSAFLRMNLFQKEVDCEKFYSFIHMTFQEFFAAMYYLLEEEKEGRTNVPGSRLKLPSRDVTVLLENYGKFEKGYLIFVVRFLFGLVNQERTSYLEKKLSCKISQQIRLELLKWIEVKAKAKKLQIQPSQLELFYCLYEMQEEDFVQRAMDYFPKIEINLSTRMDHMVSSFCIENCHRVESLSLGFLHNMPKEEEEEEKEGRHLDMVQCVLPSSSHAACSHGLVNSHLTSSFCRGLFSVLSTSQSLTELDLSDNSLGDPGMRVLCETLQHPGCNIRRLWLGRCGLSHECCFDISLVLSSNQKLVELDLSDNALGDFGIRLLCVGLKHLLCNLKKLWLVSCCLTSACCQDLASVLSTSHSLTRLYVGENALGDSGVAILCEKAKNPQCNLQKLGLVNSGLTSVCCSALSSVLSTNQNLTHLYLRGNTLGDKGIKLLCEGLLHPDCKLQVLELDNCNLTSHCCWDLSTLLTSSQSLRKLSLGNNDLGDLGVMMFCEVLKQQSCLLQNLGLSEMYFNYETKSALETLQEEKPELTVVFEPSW

pIC50 | Structure (SMILES)
8.66 | CN1CCC[C@@H](Nc2nnc(-c3ccc(OC(F)F)cc3O)c3c2COCC3)C1 [Example 136, 5-(difluoromethoxy)-2-(4-{[(3R)-1-methylpiperidin-3-yl]amino}-7,8-dihydro-5H-pyrano[3,4-d]pyridazin-1-yl)phenol dihydrochloride]
7.02 | Oc1cc(C(F)(F)F)ccc1-c1nnc(N[C@@H]2CCCC[C@H]2O)c2c1CNC2 [Example 98, 2-(4-{[(1R,2R)-2-hydroxycyclohexyl]amino}-6,7-dihydro-5H-pyrrolo[3,4-d]pyridazin-1-yl)-5-(trifluoromethyl)phenol]
6.74 | Oc1cc(C(F)(F)F)ccc1-c1nnc(N[C@H]2CCCC[C@@H]2O)c2c1CCOC2 [66(2)]
8.47 | Oc1cc(C(F)(F)F)ccc1-c1nnc(N[C@@H]2CCCN(C3COC3)C2)c2c1CCCC2 [Example 97, 2-(4-{[(3R)-1-(oxetan-3-yl)piperidin-3-yl]amino}-5,6,7,8-tetrahydrophthalazin-1-yl)-5-(trifluoromethyl)phenol]
8.92 | CN1CCC[C@@H](Nc2nnc(-c3ccc(C(F)F)cc3O)c3c2COCC3)C1 [Example 113]
7.80 | Oc1cc(C(F)(F)F)ccc1-c1nnc(N[C@H]2CCC(F)(F)C2)c2ccccc12 [Example 11]
5.85 | C[C@@H](O)CNc1nnc(-c2ccc(C(F)(F)F)cc2C(F)(F)F)c2c1CN(C)CC2 [Example 74]
7.96 | Oc1cc(OC(F)(F)F)ccc1-c1nnc(N[C@@H]2CCCC[C@H]2O)c2c1CCOCC2 [Example 68]
7.10 | [O-][S+]1Cc2c(N[C@@H]3CCCC[C@H]3O)nnc(-c3ccc(C(F)(F)F)cc3O)c2C1 (stereo partly shown) [131(2)]
7.09 | CC(C)(O)CNc1nnc(-c2ccc(C(F)(F)F)cc2O)c2c1CCC2 [Example 21]
7.62 | O=S1(=O)CCC(Oc2nnc(-c3ccc(C(F)(F)F)cc3O)c3ccccc23)CC1 [Example 10]
8.21 | Cc1cc(O)c(-c2nnc(N[C@@H]3CCCC[C@H]3O)c3c2CCOC3)c(F)c1 [62(1)]
8.89 | Oc1cc(C(F)(F)F)ccc1-c1nnc(N[C@@H]2CCCC[C@H]2O)c2c1CCOC2 [Example 133, 2-(4-{[(1R,2R)-2-hydroxycyclohexyl]amino}-7,8-dihydro-5H-pyrano[3,4-d]pyridazin-1-yl)-5-(trifluoromethyl)phenol monohydrochloride]
7.48 | CC(=O)NCCCCOc1nnc(-c2ccc(C(F)(F)F)cc2O)c2ccccc12 [Example 81, N-[4-({4-[2-hydroxy-4-(trifluoromethyl)phenyl]phthalazin-1-yl}oxy)butyl]acetamide]
8.15 | C[C@]1(O)C[C@@H](Nc2nnc(-c3ccc(C(F)(F)F)cc3O)c3c2COCC3)C1 [56(1)]
8.32 | Oc1cc(OC(F)(F)F)ccc1-c1nnc(N[C@@H]2CCC[C@H](O)C2)c2c1CCOC2 [Example 106]
6.70 | CS(=O)(=O)N1CCc2c(-c3ccc(C(F)(F)F)cc3O)nnc(N[C@@H]3CCCC[C@H]3O)c2C1 [Example 93, 2-[4-{[(1R,2R)-2-hydroxycyclohexyl]amino}-6-(methanesulfonyl)-5,6,7,8-tetrahydropyrido[3,4-d]pyridazin-1-yl]-5-(trifluoromethyl)phenol]
8.48 | CN1CCC[C@@H](Nc2nnc(-c3ccc(OC(F)(F)F)cc3O)c3c2COCC3)C1 [Example 128, 2-(4-{[(3R)-1-methylpiperidin-3-yl]amino}-7,8-dihydro-5H-pyrano[3,4-d]pyridazin-1-yl)-5-(trifluoromethoxy)phenol]
5.28 | C[C@@H](O)CNc1nnc(-c2ccc(C(F)(F)F)cc2C(F)(F)F)c2c1CN(S(C)(=O)=O)CC2 [Example 80, (2R)-1-({1-[2,4-bis(trifluoromethyl)phenyl]-6-(methanesulfonyl)-5,6,7,8-tetrahydropyrido[3,4-d]pyridazin-4-yl}amino)propan-2-ol]
7.85 | COc1ccc(-c2nnc(N[C@@H]3CCCC[C@H]3O)c3c2CCCC3)c(O)c1 [Example 28]
5.05 | Cc1ccc(-c2nnc(NCCCO)c3c2CCCC3)cc1 [Example 6]
7.00 | COc1ccc(-c2nnc(N[C@H]3C[C@@](C)(O)C3)c3c2CCCC3)c(O)c1 [Example 33]
8.15 | Oc1cc(OC(F)(F)F)ccc1-c1nnc(N[C@@H]2CCCC[C@H]2O)c2c1COCC2 [3(2), 2-(1-{[(1R,2R)-2-hydroxycyclohexyl]amino}-7,8-dihydro-5H-pyrano[3,4-d]pyridazin-4-yl)-5-(trifluoromethoxy)phenol]
8.39 | Oc1cc(C2CC2)ccc1-c1nnc(N[C@@H]2CCCC[C@H]2O)c2c1CCOC2 [52(1)]
6.89 | CC(=O)N1Cc2c(N[C@@H]3CCCC[C@H]3O)nnc(-c3ccc(C(F)(F)F)cc3O)c2C1 [Example 117, 1-(1-{[(1R,2R)-2-hydroxycyclohexyl]amino}-4-[2-hydroxy-4-(trifluoromethyl)phenyl]-5,7-dihydro-6H-pyrrolo[3,4-d]pyridazin-6-yl)ethan-1-one]
8.06 | Oc1cc(OC(F)(F)F)ccc1-c1nnc(N[C@@H]2CCCC[C@H]2O)c2c1CCCCC2 [Example 43]

pIC50 | Structure (SMILES)
7.85 | Oc1cc(C(F)(F)F)ccc1-c1nnc(N[C@@H]2CCCC[C@H]2O)c2c1COCC2 [2(2), 2-(1-{[(1R,2R)-2-hydroxycyclohexyl]amino}-7,8-dihydro-5H-pyrano[3,4-d]pyridazin-4-yl)-5-(trifluoromethyl)phenol]
8.05 | CN1CCC[C@@H](Nc2nnc(-c3ccc(C(F)(F)F)cc3O)c3c2CCOCC3)C1 [Example 105]
8.72 | C[C@@H](O)CNc1nnc(-c2ccc(C(F)(F)F)cc2O)c2ccncc12 [16(1)]
8.41 | Oc1cc(C(F)(F)F)ccc1-c1nnc(N[C@@H]2CCCC[C@H]2O)c2c1CCCCC2 [Example 34]
8.36 | Oc1cc(C(F)(F)F)ccc1-c1nnc(N[C@@H]2CCCC[C@H]2O)c2c1CCSC2 [Example 103]
7.55 | N[C@@H]1CCCC[C@H]1Nc1nnc(-c2ccc(C(F)(F)F)cc2O)c2ccccc12 [Example 82, 2-(4-{[(1R,2R)-2-aminocyclohexyl]amino}phthalazin-1-yl)-5-(trifluoromethyl)phenol dihydrochloride]
8.44 | Oc1cc(C(F)(F)F)ccc1-c1nnc(N[C@@H]2CCCC[C@H]2O)c2c1CCC1(COC1)C2 [Example 107]
7.82 | Oc1cc(C(F)(F)F)ccc1-c1nnc(N[C@@H]2CCCC[C@@H]2O)c2c1COCC2 [4(2), 2-(1-{[(1R,2S)-2-hydroxycyclohexyl]amino}-7,8-dihydro-5H-pyrano[3,4-d]pyridazin-4-yl)-5-(trifluoromethyl)phenol]
7.02 | CC1(C)SCc2c(N[C@@H]3CCCN(CC(F)F)C3)nnc(-c3ccc(C(F)(F)F)cc3O)c21 [Example 132, 2-(4-{[(3R)-1-(2,2-difluoroethyl)piperidin-3-yl]amino}-7,7-dimethyl-5,7-dihydrothieno[3,4-d]pyridazin-1-yl)-5-(trifluoromethyl)phenol]
7.07 | O=S1(=O)CCc2c(-c3ccc(C(F)(F)F)cc3O)nnc(N[C@@H]3CCCC[C@H]3O)c2C1 [Example 129, 4-{[(1R,2R)-2-hydroxycyclohexyl]amino}-1-[2-hydroxy-4-(trifluoromethyl)phenyl]-7,8-dihydro-6λ^6-thiopyrano[3,4-d]pyridazin-6,6(5H)-dione]
8.19 | Oc1cc(C(F)F)ccc1-c1nnc(N[C@@H]2CCCC[C@H]2O)c2c1CCOC2 [Example 87]
8.34 | Oc1cc(Cl)ccc1-c1nnc(N[C@@H]2CCCC[C@H]2O)c2c1CCCC2 [Example 25]
7.96 | Oc1cc(C(F)(F)F)c(F)cc1-c1nnc(N[C@@H]2CCCC[C@H]2O)c2c1CCOC2 [Example 86]
7.74 | Oc1cc(OC(F)(F)F)ccc1-c1nnc(N[C@@H]2CCOC[C@H]2O)c2c1CCCC2 [Example 37]
7.33 | CN1CCC[C@@H](Nc2nnc(-c3ccc(C(F)(F)F)cc3O)c3c2CSC3(C)C)C1 [Example 123]
7.40 | Oc1cc(C(F)(F)F)ccc1-c1nnc(N[C@@H]2CCCC[C@H]2O)c2c1CCCO2 [Example 41]
7.85 | Oc1cc(OC(F)(F)F)ccc1-c1nnc(N[C@@H]2CCOC[C@H]2O)c2c1CCCCC2 [Example 45]
7.92 | Oc1cc(C(F)(F)F)ccc1-c1nnc(N[C@@H]2CCCC[C@H]2O)c2c1CCNC2 [Example 90, 2-(4-{[(1R,2R)-2-hydroxycyclohexyl]amino}-5,6,7,8-tetrahydropyrido[3,4-d]pyridazin-1-yl)-5-(trifluoromethyl)phenol dihydrochloride]
7.66 | O=S1(=O)CCc2c(N[C@@H]3CCCC[C@H]3O)nnc(-c3ccc(C(F)(F)F)cc3O)c2C1 [Example 130]
6.82 | Oc1cc(C(F)(F)F)ccc1-c1nnc(N[C@@H]2CCCN(C3CCC3)C2)c2c1CCCC2 [Example 71]
8.09 | O=C1NCC[C@@H]1Nc1nnc(-c2ccc(C(F)(F)F)cc2O)c2c1CCCC2 [Example 50]
7.24 | Oc1cc(C(F)(F)F)c(F)cc1-c1nnc(N[C@@H]2CCCC[C@H]2O)c2c1CCCC2 [Example 85]
7.27 | COc1ccc(-c2nnc(N[C@@H]3CCOC[C@H]3O)c3c2CCCC3)c(O)c1 [Example 38]
7.74 | Oc1cc(C(F)F)ccc1-c1nnc(N[C@@H]2CCCC[C@H]2O)c2c1CCCC2 [Example 84]
7.35 | Oc1cc(C(F)(F)F)ccc1-c1nnc(N[C@@H]2CCCNC2)c2c1CCCC2 [Example 96, 2-(4-{[(3R)-piperidin-3-yl]amino}-5,6,7,8-tetrahydrophthalazin-1-yl)-5-(trifluoromethyl)phenol]
7.06 | COc1ccc(-c2nnc(N[C@@H]3CCCC[C@@]3(C)O)c3c2CCCC3)c(O)c1 [Example 58]
